From ChEMBL document CHEMBL1136052, “Identification of novel cyclooxygenase-2 selective inhibitors using pharmacophore models” (J Med Chem, 2002)
Blank lines part the entries; values can stand above or below the molecule they belong to.

Tests used:
[1] = molecular target: Prostaglandin G/H synthase 1 (Homo sapiens) (UniProt P23219); assay: Percent inhibition of arachidonic acid induced TXB2 generation in isolated human platelets (Prostaglandin G/H synthase 1 cell assay) at 10 uM; assay type: functional
[2] = molecular target: Prostaglandin G/H synthase 1 (Homo sapiens) (UniProt P23219); conditions: 100 uM
[3] = molecular target: T1, Prostaglandin G/H synthase 2 (Homo sapiens) (UniProt P35354); assay: % Inhibition of Prostaglandin G/H synthase 2 activity was evaluated at 10 uM concentration, in human whole blood as LPS-induced PGE-2 generation; assay type: functional, tissue-based
T1 sequence (whole entry): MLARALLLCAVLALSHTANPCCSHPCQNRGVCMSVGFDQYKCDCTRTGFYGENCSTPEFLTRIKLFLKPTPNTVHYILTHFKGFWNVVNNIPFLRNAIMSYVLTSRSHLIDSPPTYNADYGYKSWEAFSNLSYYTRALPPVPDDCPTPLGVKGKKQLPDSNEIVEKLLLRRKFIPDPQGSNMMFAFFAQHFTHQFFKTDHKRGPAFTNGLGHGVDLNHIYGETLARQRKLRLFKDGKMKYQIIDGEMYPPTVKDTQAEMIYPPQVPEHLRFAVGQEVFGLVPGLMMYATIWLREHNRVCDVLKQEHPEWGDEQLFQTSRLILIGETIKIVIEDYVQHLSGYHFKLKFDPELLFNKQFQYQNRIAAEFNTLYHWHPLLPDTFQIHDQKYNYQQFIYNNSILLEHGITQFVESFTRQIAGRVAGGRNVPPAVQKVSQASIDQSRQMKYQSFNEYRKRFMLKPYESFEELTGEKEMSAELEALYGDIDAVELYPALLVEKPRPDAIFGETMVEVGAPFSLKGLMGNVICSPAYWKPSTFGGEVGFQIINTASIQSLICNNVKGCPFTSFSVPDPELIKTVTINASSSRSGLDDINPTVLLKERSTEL

[4] = molecular target: Prostaglandin G/H synthase 1 (Homo sapiens) (UniProt P23219); assay: Percent inhibition of arachidonic acid induced TXB2 generation in isolated human platelets (Prostaglandin G/H synthase 1 cell assay) at 10 uM.; assay type: functional
[5] = molecular target: T2, Prostaglandin G/H synthase 2 (Homo sapiens, UniProt P35354); assay: Inhibition of PGE-2 generation in LPS-stimulated human monocytes (Prostaglandin G/H synthase 2 assay)
T2 sequence (P35354 whole entry): T1 sequence (whole entry)

Sequence of Prostaglandin G/H synthase 1 (Homo sapiens) (P23219 whole entry): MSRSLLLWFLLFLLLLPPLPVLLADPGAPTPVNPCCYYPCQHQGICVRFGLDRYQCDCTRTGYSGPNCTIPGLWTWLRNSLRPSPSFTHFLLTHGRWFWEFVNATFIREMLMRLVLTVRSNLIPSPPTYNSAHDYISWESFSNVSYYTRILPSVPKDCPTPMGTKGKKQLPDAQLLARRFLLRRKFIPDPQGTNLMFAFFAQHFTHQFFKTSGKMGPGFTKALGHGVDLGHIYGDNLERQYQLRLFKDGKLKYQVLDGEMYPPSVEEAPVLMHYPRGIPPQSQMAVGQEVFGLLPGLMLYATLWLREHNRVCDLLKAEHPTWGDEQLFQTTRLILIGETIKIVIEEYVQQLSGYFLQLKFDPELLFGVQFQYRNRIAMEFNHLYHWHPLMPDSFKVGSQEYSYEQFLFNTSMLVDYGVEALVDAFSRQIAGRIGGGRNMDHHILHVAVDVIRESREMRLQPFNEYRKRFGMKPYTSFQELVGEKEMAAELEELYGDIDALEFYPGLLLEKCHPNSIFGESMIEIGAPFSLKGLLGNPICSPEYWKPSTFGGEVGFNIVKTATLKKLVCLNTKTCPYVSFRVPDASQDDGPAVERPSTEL

inhibition [1]: 0%
Compound: COC(=O)c1cc2cc(S(C)(=O)=O)ccc2n1Cc1ccc([N+](=O)[O-])cc1

inhibition [1]: 15%
inhibition [2]: 54%
Compound: COC(=O)c1cc2cc(S(C)(=O)=O)ccc2n1Cc1ccc(OC)cc1

inhibition [3]: < 25%
inhibition [4]: 16%
IC50 [5]: 0.73 µM
Compound: COC(=O)c1cc2cc(S(C)(=O)=O)ccc2n1C(=O)c1ccc(Cl)cc1

inhibition [1]: 25%
Compound: COC(=O)c1cc2cc(S(C)(=O)=O)ccc2n1Cc1ccc(Br)cc1

inhibition [4]: 15%
Compound: COC(=O)c1cc2cc(S(C)(=O)=O)ccc2n1C(=O)c1ccc(Br)cc1

inhibition [1]: 37%
Compound: CS(=O)(=O)c1ccc2c(c1)cc(C(=O)O)n2Cc1ccc(Cl)cc1

inhibition [1]: 19%
inhibition [2]: 25%
Compound: COC(=O)c1cc2cc(S(C)(=O)=O)ccc2n1Cc1ccc(Cl)cc1
